Molecular target: T1, haematopoietic prostaglandin D synthase (H-PGDS) (Homo sapiens, UniProt O60760)
T1 construct: Full length human H-PGDS cDNA (Invitrogen Ultimate ORF IOH13026) was amplified by PCR; made in house; host or cells: E. coli BL21 (DE3*), vector pET22b+
Experiment: H-PGDS RapidFire High Throughput Mass Spectrometry Assay
Format: biochemical
Settings: H-PGDS RapidFire MS assay, mean pIC50; read-out: Potency Range (mean pIC50) (converted)
Experimental: The H-PGDS RapidFire™ mass spectrometric assay monitors conversion of prostaglandin H2 (PGH2) to prostaglandin D2 (PGD2) by haematopoietic prostaglandin D synthase (H-PGDS). In the assay format described here, the substrate (PGH2) is formed in situ by the action of cyclooxygenase-2 on arachidonic acid. This first step is set up to be fast, and generates a burst of PGH2 at ˜10 μM. The PGH2 is then further converted to PGD2 by the H-PGDS enzyme. […] Plates are then read on the RapidFire™ high throughput solid phase extraction system (Agilent) which incorporates a solid phase extraction step coupled to a triple quadrupole mass spectrometer (AB SCIEX). Relative levels of PGD2 and PGF2α, which acts as a surrogate for substrate, are measured and a percent conversion calculated.
Full length human H-PGDS cDNA (Invitrogen Ultimate ORF IOH13026) was amplified by PCR with the addition of a 5′ 6-His tag and TEV protease cleavage site. The PCR product was digested with Ndel and Xhol and ligated into pET22b+ (Merck Novagen®). Expression was carried out in E. coli strain BL21 (DE3*) using auto-induction Overnight Express™ Instant TB medium (Merck Novagen®) supplemented with 1% glycerol. The culture was first grown at 37° C. and the temperature was reduced to 25° C. when OD600 reached 2.0. Cells were harvested by centrifugation after a further 18 hr. 10 g of E. coli cell pellet was suspended to a total volume of 80 mL in lysis buffer (20 mM Tris-Cl pH 7.5, 300 mM NaCl, 20 mM imidazole, 5 mM β-mercaptoethanol, 10% glycerol). 1 mg/mL protease inhibitors (Protease Inhibitor Cocktail Set Ill, Merck Calbiochem®) and 1 mg/mL lysozyme were added to the cell suspension. The suspension was then sonicated for 5 min (UltraSonic Processor VCX 750, Cole-Parmer Instrument Co.) with a micro probe (50% amplitude, 10 sec on/off) and then centrifuged at 100,000 g for 90 min (at 4° C.). The supernatant was loaded onto a Ni-NTA HiTrap column (5 mL, GE Heathcare, pre-equilibrated in lysis buffer). The column was washed with 10 column volumes of lysis buffer and eluted with lysis buffer containing 500 mM imidazole. The pooled protein peak fractions were concentrated using a 10 kDa centrifugal filter at 3500 g and 4° C. (Amicon Ultra-15 centrifugal filter unit with Ultracel-10 membrane from Millipore). Further purification of the concentrated protein was carried out using gel filtration chromatography on a HiLoad 26/600 Superdex 75 preparative grade column (GE Healthcare Life Sciences) using 50 mM Tris pH 7.5, 50 mM NaCl, 1 mM dithiothreitol, 1 mM MgCl2. Fractions containing the protein were pooled, concentrated as described above, and stored at −80° C.
The full length human COX-2 gene (accession number L15326) was amplified by PCR to generate an EcoRI-HindIII fragment containing an in-frame FLAG tag. This was subcloned into pFastBac 1 (Invitrogen). The COX2 FLAG plasmid was recombined into the baculovirus genome according to the BAC-to-BAC protocol described by Invitrogen. Transfection into Spodoptera frugiperda (Sf9) insect cells was performed using Cellfectin (Invitrogen), according to the manufacturer's protocol. […] Recombinant virus was added at a Multiplicity of Infection (MOI) of 5 and the culture was allowed to continue for 3 days. Cells were harvested using a continuous feed centrifuge run at 2500 g at a rate of approximately 2 L/min with cooling. The resultant cell slurry was re-centrifuged in pots (2500 g, 20 min, 4° C.) and the cell paste was stored at −80° C. […] The suspension was sonicated in 500 mL batches for 8×5 seconds at 10 u amplitude with the medium tip of an MSE probe sonicator and subsequently incubated at 4° C. for 90 min with gentle stirring. The lysate was centrifuged at 12000 rpm for 45 min at 4° C. in a Sorvall SLA1500 rotor. The supernatant (1400 mL) was added to 420 mL of 20 mM Tris-Cl pH 7.4, 150 mM NaCl, 0.1 mM EDTA to reduce the concentration of n-octyl-β-D-glucopyranoside to 1% w/v.

T1 sequence (O60760 whole entry): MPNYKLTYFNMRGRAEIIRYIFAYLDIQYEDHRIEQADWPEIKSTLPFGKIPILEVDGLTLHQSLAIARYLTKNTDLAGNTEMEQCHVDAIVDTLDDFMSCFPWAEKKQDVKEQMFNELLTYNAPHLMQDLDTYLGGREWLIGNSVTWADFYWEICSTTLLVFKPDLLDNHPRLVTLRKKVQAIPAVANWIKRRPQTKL

Row | Structure (SMILES) | IC50 [nM]
1 | Cn1nnnc1N1CCC(NC(=O)c2cnc3cc(Br)ccc3c2)CC1 [Example 108, 7-Bromo-N-(1-(1-methyl-1H-tetrazol-5-yl)piperidin-4-yl)quinoline-3-carboxamide] | 10 to 79.4
2 | CC(C)(O)[C@H]1CC[C@H](NC(=O)c2cnc3cc(OC(F)F)c(F)cc3c2)CC1 [Example 51, 7-(Difluoromethoxy)-6-fluoro-N-(trans-4-(2-hydroxypropan-2-yl)cyclohexyl)quinoline-3-carboxamide] | 10 to 79.4
3 | CC(C)(O)C(=O)N1CCC(NC(=O)c2cnc3cc(OC(F)F)c(Cl)cc3c2)CC1 [Example 220, 6-Chloro-7-(difluoromethoxy)-N-(1-(2-hydroxy-2-methylpropanoyl)piperidin-4-yl)quinoline-3-carboxamide] | < 10
4 | CC[C@]1(O)CC[C@H](NC(=O)c2cnc3cc(OC(F)F)c(F)cc3c2)CC1 [Example 81, 7-(Difluoromethoxy)-N-((1r,4r)-4-ethyl-4-hydroxycyclohexyl)-6-fluoroquinoline-3-carboxamide] | 10 to 79.4
5 | O=C(N[C@H]1C[C@H](O)C1)c1cnc2cc(OC(F)F)c(Cl)cc2c1 [Example 140, 6-Chloro-7-(difluoromethoxy)-N-(trans-3-hydroxycyclobutyl)quinoline-3-carboxamide] | 10 to 79.4
6 | CC(C)(O)[C@H]1CC[C@H](NC(=O)c2cnc3cc(N)c(F)cc3c2)CC1 [Example 173, 7-Amino-6-fluoro-N-(trans-4-(2-hydroxypropan-2-yl)cyclohexyl)quinoline-3-carboxamide] | 100 to 1000
7 | CC(C)N1CC[C@H](NC(=O)c2cnc3cc(OC(F)F)c(Cl)cc3c2)C1=O [Example 119, (S)-6-Chloro-7-(difluoromethoxy)-N-(1-isopropyl-2-oxopyrrolidin-3-yl)quinoline-3-carboxamide] | 10 to 79.4
8 | Cc1c(OC(F)F)c(Cl)cc2cc(C(=O)N[C@H]3CC[C@H](C(C)(C)O)CC3)cnc12 [Example 229, 6-Chloro-7-(difluoromethoxy)-N-((trans)-4-(2-hydroxypropan-2-yl)cyclohexyl)-8-methylquinoline-3-carboxamide] | 10 to 79.4
9 | CC1C[C@H](NC(=O)c2cnc3cc(OC(F)F)c(Cl)cc3c2)C(=O)N1 (mixture of isomers) [Example 133, 6-Chloro-7-(difluoromethoxy)-N-((3S)-5-methyl-2-oxopyrrolidin-3-yl)quinoline-3-carboxamide] | 10 to 79.4
10 | CC(C)(O)[C@H]1CC[C@H](NC(=O)c2cnc3c(F)c(OC(F)F)c(Cl)cc3c2)CC1 [Example 236, 6-Chloro-7-(difluoromethoxy)-8-fluoro-N-(trans-4-(2-hydroxypropan-2-yl)cyclohexyl)quinoline-3-carboxamide] | < 10
11 | CC1CCN1c1cc2ncc(C(=O)N[C@H]3CCNC3=O)cc2cc1F (mixture of isomers) [Example 171, 6-Fluoro-7-(2-methylazetidin-1-yl)-N—((S)-2-oxopyrrolidin-3-yl)quinoline-3-carboxamide] | 10 to 79.4
12 | CC(C)(O)[C@H]1CC[C@H](NC(=O)c2cnc3c4c(ccc3c2)CCO4)CC1 [Example 113, N-(trans-4-(2-Hydroxypropan-2-yl)cyclohexyl)-2,3-dihydrofuro[3,2-h]quinoline-7-carboxamide] | 10 to 79.4
13 | N#Cc1cc2cc(C(=O)NC3CC(=O)Nc4ccccc43)cnc2cc1C1CC1 (stereo not drawn) [Example 26, 6-Cyano-7-cyclopropyl-N-(2-oxo-1,2,3,4-tetrahydroquinolin-4-yl)quinoline-3-carboxamide] | < 10
14 | O=C(N[C@H]1CC[C@H](N2CC(O)(C(F)(F)F)C2)CC1)c1cnc2cc(OC(F)F)c(Cl)cc2c1 [Example 134, 6-Chloro-7-(difluoromethoxy)-N-(trans-4-(3-hydroxy-3-(trifluoromethyl)azetidin-1-yl)cyclohexyl)quinoline-3-carboxamide] | < 10
15 | O=C(N[C@H]1CC[C@H](N2CC(F)(F)C2)CC1)c1cnc2cc(OC(F)F)c(F)cc2c1 [Example 71, N-(trans-4-(3,3-Difluoroazetidin-1-yl)cyclohexyl)-7-(difluoromethoxy)-6-fluoroquinoline-3-carboxamide] | 10 to 79.4

Source: US20210238162A1, “CHEMICAL COMPOUNDS” (GlaxoSmithKline Intellectual Property Development Limited, priority 2015, published 2021)
